Legend:
Experiment in all cases: scanMAX KINOMEscan (Eurofins)
Assay type in all cases: binding
CAMK2D = CAMK2D (Homo sapiens, UniProt Q13557); conditions: 1000 nM, read-out: Percent Control
Description: (§1) Supplement cb5c00097_si_002.xlsx, sheet "Table S6 (Eurofins Selectivity)" | column: Percent Control

PRKCQ = PRKCQ (Homo sapiens, UniProt Q04759); conditions: 1000 nM, read-out: Percent Control
Description: as §1

EPHA3 = EPHA3 (Homo sapiens, UniProt P29320); conditions: read-out: Percent Control
Chain of EPHA3 (P29320 21-983): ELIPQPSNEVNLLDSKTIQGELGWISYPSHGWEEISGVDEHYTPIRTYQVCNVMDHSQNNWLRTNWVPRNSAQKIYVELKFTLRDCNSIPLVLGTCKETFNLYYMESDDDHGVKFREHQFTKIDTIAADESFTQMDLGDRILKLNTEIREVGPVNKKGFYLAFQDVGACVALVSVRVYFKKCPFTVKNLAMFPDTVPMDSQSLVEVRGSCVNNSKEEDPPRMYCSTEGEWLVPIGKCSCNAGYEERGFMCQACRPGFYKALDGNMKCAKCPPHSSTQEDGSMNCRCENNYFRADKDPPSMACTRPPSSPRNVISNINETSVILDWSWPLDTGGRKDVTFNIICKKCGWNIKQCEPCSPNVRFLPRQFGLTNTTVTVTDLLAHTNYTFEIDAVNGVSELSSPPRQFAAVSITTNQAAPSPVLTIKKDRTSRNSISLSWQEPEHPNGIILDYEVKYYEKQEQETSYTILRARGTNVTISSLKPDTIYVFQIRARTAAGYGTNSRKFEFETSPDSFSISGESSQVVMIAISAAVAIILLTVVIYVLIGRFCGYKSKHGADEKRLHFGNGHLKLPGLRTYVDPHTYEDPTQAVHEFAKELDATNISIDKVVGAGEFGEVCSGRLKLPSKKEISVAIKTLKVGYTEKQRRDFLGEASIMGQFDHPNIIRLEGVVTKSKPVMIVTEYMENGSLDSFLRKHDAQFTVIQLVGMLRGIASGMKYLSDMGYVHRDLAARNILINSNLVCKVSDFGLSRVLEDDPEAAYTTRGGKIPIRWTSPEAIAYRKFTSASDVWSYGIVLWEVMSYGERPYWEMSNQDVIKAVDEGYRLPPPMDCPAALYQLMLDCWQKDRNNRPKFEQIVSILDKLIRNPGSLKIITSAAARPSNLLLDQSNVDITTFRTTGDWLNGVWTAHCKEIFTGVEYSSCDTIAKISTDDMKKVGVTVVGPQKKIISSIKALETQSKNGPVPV
Description: as §1

ERBB2 = ERBB2 (Homo sapiens, UniProt P04626); conditions: read-out: Percent Control
Chain of ERBB2 (P04626 23-1255): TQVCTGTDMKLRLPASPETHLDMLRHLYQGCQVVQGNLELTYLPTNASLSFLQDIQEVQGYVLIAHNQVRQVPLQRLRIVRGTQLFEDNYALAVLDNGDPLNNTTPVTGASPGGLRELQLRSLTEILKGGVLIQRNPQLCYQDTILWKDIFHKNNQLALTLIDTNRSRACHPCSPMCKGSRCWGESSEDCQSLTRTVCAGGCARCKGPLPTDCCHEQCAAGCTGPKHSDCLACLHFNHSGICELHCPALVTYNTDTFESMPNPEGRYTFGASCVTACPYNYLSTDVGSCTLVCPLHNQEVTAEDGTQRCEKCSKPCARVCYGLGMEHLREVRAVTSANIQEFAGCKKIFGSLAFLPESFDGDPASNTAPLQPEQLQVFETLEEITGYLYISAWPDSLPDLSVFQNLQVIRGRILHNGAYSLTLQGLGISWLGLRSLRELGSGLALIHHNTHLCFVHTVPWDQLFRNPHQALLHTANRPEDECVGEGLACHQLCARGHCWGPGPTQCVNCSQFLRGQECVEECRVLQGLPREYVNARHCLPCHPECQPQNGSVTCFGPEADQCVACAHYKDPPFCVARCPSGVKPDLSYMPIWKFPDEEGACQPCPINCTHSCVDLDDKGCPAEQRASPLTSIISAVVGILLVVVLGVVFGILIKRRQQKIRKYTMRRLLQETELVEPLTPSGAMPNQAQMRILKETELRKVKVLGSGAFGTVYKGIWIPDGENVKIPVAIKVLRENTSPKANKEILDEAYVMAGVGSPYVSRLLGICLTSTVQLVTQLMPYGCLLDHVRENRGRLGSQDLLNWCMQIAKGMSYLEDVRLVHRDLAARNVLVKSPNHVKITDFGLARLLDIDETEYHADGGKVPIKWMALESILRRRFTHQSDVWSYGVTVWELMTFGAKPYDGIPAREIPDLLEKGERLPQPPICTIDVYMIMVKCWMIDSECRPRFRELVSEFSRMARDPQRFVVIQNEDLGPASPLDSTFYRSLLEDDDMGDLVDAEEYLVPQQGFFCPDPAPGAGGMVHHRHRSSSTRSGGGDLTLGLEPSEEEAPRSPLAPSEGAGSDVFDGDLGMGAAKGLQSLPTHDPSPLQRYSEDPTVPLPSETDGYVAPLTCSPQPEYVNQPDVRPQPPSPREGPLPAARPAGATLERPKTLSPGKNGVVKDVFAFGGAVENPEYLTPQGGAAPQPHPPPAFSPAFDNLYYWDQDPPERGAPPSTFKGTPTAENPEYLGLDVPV
Description: as §1

p38-gamma = p38-gamma (Homo sapiens, UniProt P53778); conditions: 1000 nM, read-out: Percent Control
Description: as §1

p38-alpha = p38-alpha (Homo sapiens, UniProt Q16539); conditions: compound concentration 100 nM; Entrez MAPK14; read-out: Percent Control
Description: as §1

TNK1 = TNK1 (Homo sapiens, UniProt Q13470); conditions: 1000 nM, read-out: Percent Control
Description: as §1

DMPK = DMPK (Homo sapiens, UniProt Q09013); conditions: read-out: Percent Control
Chain of DMPK (Q09013 whole entry): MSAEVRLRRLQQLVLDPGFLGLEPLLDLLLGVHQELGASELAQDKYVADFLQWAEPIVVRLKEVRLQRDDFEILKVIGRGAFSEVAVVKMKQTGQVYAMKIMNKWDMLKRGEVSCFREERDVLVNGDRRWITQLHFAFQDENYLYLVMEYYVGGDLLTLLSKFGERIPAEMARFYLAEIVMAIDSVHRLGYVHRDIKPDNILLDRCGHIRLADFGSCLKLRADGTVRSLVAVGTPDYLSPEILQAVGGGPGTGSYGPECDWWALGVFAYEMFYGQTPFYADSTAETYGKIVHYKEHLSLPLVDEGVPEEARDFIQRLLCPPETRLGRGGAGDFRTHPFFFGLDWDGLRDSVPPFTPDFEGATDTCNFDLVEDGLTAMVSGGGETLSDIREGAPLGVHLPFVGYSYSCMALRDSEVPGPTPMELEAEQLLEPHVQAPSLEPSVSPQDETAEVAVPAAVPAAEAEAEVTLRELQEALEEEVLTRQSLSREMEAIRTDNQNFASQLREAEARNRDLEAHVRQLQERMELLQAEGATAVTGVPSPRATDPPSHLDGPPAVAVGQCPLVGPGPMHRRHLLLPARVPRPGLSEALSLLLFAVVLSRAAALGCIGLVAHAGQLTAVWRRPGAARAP
Description: as §1

CDK4 = CDK4 (Homo sapiens, UniProt P11802); conditions: 1000 nM, read-out: Percent Control
Description: as §1

CSNK1A1L = CSNK1A1L (Homo sapiens, UniProt Q8N752); conditions: 1000 nM, read-out: Percent Control
Description: as §1

FER = FER (Homo sapiens, UniProt P16591); conditions: 1000 nM, read-out: Percent Control
Description: as §1

PFCDPK1(P.falciparum) = PFCDPK1(P.falciparum) (Plasmodium falciparum, UniProt P62344); conditions: compound concentration 100 nM; Entrez CDPK1; read-out: Percent Control
Description: as §1

MAP4K2 = MAP4K2 (Homo sapiens, UniProt Q12851); conditions: 1000 nM, read-out: Percent Control
Description: as §1

IRAK4 = IRAK4 (Homo sapiens, UniProt Q9NWZ3); conditions: compound concentration 100 nM; Entrez IRAK4; read-out: Percent Control
Description: as §1

MAPKAPK5 = MAPKAPK5 (Homo sapiens, UniProt Q8IW41); conditions: compound concentration 100 nM; Entrez MAPKAPK5; read-out: Percent Control
Description: as §1

MAP3K2 = MAP3K2 (Homo sapiens, UniProt Q9Y2U5); conditions: compound concentration 100 nM; Entrez MAP3K2; read-out: Percent Control
Description: as §1

ERBB3 = ERBB3 (Homo sapiens, UniProt P21860); conditions: 1000 nM, read-out: Percent Control
Description: as §1

HCK = HCK (Homo sapiens, UniProt P08631); conditions: 1000 nM, read-out: Percent Control
Chain of HCK (P08631 whole entry): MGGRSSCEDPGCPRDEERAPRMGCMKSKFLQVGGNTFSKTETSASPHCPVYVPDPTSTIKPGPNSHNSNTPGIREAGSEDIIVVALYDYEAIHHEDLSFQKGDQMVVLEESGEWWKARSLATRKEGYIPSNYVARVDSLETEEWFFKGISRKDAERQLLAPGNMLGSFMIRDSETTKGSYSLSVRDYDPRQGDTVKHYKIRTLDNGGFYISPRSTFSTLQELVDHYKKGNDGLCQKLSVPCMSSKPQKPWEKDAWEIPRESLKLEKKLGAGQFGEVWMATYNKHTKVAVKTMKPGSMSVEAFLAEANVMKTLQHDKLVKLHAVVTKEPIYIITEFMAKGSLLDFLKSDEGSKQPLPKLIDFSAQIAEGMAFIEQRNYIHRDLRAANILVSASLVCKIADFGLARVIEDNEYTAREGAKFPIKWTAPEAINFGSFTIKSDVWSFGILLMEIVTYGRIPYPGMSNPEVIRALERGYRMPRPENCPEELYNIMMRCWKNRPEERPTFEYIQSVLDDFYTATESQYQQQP
Description: as §1

TLK2 = TLK2 (Homo sapiens, UniProt Q86UE8); conditions: compound concentration 100 nM; Entrez TLK2; read-out: Percent Control
Description: as §1

ADCK3 = ADCK3 (Homo sapiens, UniProt Q8NI60); conditions: read-out: Percent Control
Chain of ADCK3 (Q8NI60 163-647): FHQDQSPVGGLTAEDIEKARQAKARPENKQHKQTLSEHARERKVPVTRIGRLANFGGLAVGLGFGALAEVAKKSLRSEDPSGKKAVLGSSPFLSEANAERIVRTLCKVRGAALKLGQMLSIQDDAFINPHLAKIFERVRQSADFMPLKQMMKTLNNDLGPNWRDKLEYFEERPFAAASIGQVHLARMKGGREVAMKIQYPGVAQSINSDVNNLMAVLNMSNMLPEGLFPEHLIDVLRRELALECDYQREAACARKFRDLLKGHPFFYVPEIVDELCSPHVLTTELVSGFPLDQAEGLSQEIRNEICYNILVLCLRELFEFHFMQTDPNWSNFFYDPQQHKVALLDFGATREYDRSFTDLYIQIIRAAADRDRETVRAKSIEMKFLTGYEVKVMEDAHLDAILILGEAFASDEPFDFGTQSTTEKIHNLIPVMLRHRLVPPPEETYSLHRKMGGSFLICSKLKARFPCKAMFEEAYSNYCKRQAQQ
Description: as §1

LATS2 = LATS2 (Homo sapiens, UniProt Q9NRM7); conditions: 1000 nM, read-out: Percent Control
Description: as §1

RIPK2 = RIPK2 (Homo sapiens, UniProt O43353); conditions: 1000 nM, read-out: Percent Control
Description: as §1

MLCK = MLCK (Homo sapiens, UniProt Q32MK0); conditions: 1000 nM, read-out: Percent Control
Description: as §1

GRK2 = GRK2 (Homo sapiens, UniProt P25098); conditions: read-out: Percent Control
Chain of GRK2 (P25098 whole entry): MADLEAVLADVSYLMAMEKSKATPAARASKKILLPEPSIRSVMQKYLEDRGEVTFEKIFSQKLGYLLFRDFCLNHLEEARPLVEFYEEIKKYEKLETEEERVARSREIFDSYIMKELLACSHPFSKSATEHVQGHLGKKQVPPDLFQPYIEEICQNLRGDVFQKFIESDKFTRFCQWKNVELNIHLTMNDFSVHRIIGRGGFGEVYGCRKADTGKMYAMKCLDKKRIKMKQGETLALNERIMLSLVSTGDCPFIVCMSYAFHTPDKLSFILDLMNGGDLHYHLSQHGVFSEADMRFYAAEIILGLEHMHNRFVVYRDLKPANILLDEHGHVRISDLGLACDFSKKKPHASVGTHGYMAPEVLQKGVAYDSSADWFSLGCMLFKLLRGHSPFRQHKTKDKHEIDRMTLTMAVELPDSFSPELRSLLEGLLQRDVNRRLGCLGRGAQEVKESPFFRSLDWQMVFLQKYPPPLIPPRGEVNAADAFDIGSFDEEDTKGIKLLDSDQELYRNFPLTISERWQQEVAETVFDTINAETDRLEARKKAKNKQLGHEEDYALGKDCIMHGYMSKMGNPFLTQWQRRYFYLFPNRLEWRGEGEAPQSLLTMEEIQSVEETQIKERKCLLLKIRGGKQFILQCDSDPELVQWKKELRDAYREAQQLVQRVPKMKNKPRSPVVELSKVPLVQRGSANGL
Description: as §1

IRAK1 = IRAK1 (Homo sapiens, UniProt P51617); conditions: read-out: Percent Control
Description: as §1

NEK1 = NEK1 (Homo sapiens, UniProt Q96PY6); conditions: compound concentration 100 nM; Entrez NEK1; read-out: Percent Control
Description: as §1

FYN = FYN (Homo sapiens, UniProt P06241); conditions: 1000 nM, read-out: Percent Control
Description: as §1

NIK = NIK (Homo sapiens, UniProt Q99558); conditions: compound concentration 100 nM; Entrez MAP3K14; read-out: Percent Control
Description: as §1

PIK4CB = PIK4CB (Homo sapiens, UniProt Q9UBF8); conditions: 1000 nM, read-out: Percent Control
Description: as §1

TNK2 = TNK2 (Homo sapiens, UniProt Q07912); conditions: read-out: Percent Control
Description: as §1

AAK1 = AAK1 (Homo sapiens, UniProt Q2M2I8); conditions: 1000 nM, read-out: Percent Control
Description: as §1

FES = FES (Homo sapiens, UniProt P07332); conditions: read-out: Percent Control
Description: as §1

PRKCI = PRKCI (Homo sapiens, UniProt P41743); conditions: 1000 nM, read-out: Percent Control
Description: as §1

GRK7 = GRK7 (Homo sapiens, UniProt Q8WTQ7); conditions: 1000 nM, read-out: Percent Control
Description: as §1

AKT3 = AKT3 (Homo sapiens, UniProt Q9Y243); conditions: read-out: Percent Control
Chain of AKT3 (Q9Y243 whole entry): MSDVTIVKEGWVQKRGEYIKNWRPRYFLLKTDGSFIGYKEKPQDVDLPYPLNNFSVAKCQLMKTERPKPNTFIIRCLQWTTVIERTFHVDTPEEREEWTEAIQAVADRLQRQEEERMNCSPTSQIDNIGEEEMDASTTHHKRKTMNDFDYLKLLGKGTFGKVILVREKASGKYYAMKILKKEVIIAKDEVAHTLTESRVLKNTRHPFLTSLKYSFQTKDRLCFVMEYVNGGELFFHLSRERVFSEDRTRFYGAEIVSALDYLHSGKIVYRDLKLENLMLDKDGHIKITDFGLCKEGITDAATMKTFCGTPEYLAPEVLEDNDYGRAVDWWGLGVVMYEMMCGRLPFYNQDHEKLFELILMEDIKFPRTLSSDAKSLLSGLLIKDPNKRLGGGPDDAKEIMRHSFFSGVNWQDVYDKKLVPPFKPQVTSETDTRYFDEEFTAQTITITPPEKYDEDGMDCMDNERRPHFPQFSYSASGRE
Description: as §1

SGK = SGK (Homo sapiens, UniProt O00141); conditions: compound concentration 100 nM; Entrez SGK1; read-out: Percent Control
Description: as §1

CN1C(=O)[C@@H](N2CCc3c(nn(Cc4ccccc4)c3C(N)=O)C2=O)COc2cc(Cl)ccc21 [Compound 10, (S)-2-benzyl-6-(8-chloro-5-methyl-4-oxo-2,3,4,5-tetrahydrobenzo[b][1,4]oxazepin-3-yl)-7-oxo-4,5,6,7-tetrahydro-2H-pyrazolo[3,4-c]pyridine-3-carboxamide] was tested, and the remaining binding at 1 µM (CAMK2D) was 89%, the remaining binding at 1 µM (PRKCQ) was 91% and the remaining binding at 1 µM (EPHA3; 1000 nM) was 100%. The remaining binding at 0.1 µM (EPHA3; compound concentration 100 nM, Entrez EPHA3) was 77%, the remaining binding at 1 µM (ERBB2; 1000 nM) was 100% and the remaining binding at 0.1 µM (ERBB2; compound concentration 100 nM, Entrez ERBB2) was 100%. It also gave a remaining binding at 1 µM (p38-gamma) of 70%, a remaining binding at 0.1 µM (p38-alpha) of 100% and a remaining binding at 1 µM (TNK1) of 77%. The remaining binding at 1 µM (DMPK; 1000 nM) was 100%, the remaining binding at 0.1 µM (DMPK; compound concentration 100 nM, Entrez DMPK) was 80% and the remaining binding at 1 µM (CDK4) was 76%. For the same compound, the remaining binding at 1 µM (CSNK1A1L) was 85%, the remaining binding at 1 µM (FER) was 90% and the remaining binding at 0.1 µM (PFCDPK1(P.falciparum)) was 97%. The remaining binding at 1 µM (MAP4K2) was 88%, the remaining binding at 0.1 µM (IRAK4) was 100% and the remaining binding at 0.1 µM (MAPKAPK5) was 96%. It also gave a remaining binding at 0.1 µM (MAP3K2) of 100%, a remaining binding at 1 µM (ERBB3) of 85% and a remaining binding at 1 µM (HCK) of 92%. The remaining binding at 0.1 µM (TLK2) was 82%, the remaining binding at 1 µM (ADCK3; 1000 nM) was 100% and the remaining binding at 0.1 µM (ADCK3; compound concentration 100 nM, Entrez CABC1) was 100%. It also gave a remaining binding at 1 µM (LATS2) of 69%, a remaining binding at 1 µM (RIPK2) of 80% and a remaining binding at 1 µM (MLCK) of 93%. It also gave a remaining binding at 1 µM (GRK2; 1000 nM) of 99%, a remaining binding at 0.1 µM (GRK2; compound concentration 100 nM, Entrez ADRBK1) of 91% and a remaining binding at 1 µM (IRAK1; 1000 nM) of 100%. For the same compound, the remaining binding at 0.1 µM (IRAK1; compound concentration 100 nM, Entrez IRAK1) was 100%, the remaining binding at 0.1 µM (NEK1) was 76% and the remaining binding at 1 µM (FYN) was 77%. For the same compound, the remaining binding at 0.1 µM (NIK) was 80%, the remaining binding at 1 µM (PIK4CB) was 75% and the remaining binding at 1 µM (TNK2; 1000 nM) was 98%. It also gave a remaining binding at 0.1 µM (TNK2; compound concentration 100 nM, Entrez TNK2) of 89%, a remaining binding at 1 µM (AAK1) of 83% and a remaining binding at 1 µM (FES; 1000 nM) of 100%. For the same compound, the remaining binding at 0.1 µM (FES; compound concentration 100 nM, Entrez FES) was 100%, the remaining binding at 1 µM (PRKCI) was 80% and the remaining binding at 1 µM (GRK7) was 98%. It also gave a remaining binding at 1 µM (AKT3; 1000 nM) of 100%, a remaining binding at 0.1 µM (AKT3; compound concentration 100 nM, Entrez AKT3) of 100% and a remaining binding at 0.1 µM (SGK) of 98%.

From PMC12090182, “Repurposing of the RIPK1-Selective Benzo[1,4]oxazepin-4-one Scaffold for the Development of a Type III LIMK1/2 Inhibitor” (ACS Chemical Biology, 2025)
